According to patent publication US3998963A, “Tertiary butyl substituted carbamoyl oxime pesticides” (priority 1975, dated 1976):

How the values were obtained:
Format in all cases: in vivo
[1] = test system: bean; test: Phytotoxicity Test, bean; conditions: 2500 parts per million; ten days
Method: (§1) Suspensions of the test compouns were prepared by dissolving one gram of compound in 50 milliliters of acetone in which had been dissolved 0.1 gram (10 percent of the weight of compound) of an alkylphenoxy polyethoxyethanol surfactant, as an emulsifying or dispersing agent. The resulting solution was mixed into 150 milliliters of water to give roughly 200 milliliters of a suspension containing the compound in finely divided form. The thus-prepared stock suspension contained 0.5 percent by weight of compound. The test concentrations in parts per million by weight employed in the tests described hereinbelow were obtained by appropriate dilutions of the stock suspension with water. The test procedures were as follows:
(§2) Experiments were also conducted to determine the phytotoxicity of representative compositions with respect to healthy fresh plants. Solutions of the compounds were prepared as described above to provide a concentration of 2500 parts per million of the test compound. The test plants were sprayed in accordance with the procedure described above for the Mite Foliage Spray Test so as to deliver approximately 100 milliliters of test solution to the leaves of each plant tested. The sprayed plants and controls were set aside for approximately one hour to allow the foliage to dry and were then placed in the greenhouse. After ten days the plants were visually inspected to determine the extent of foliage injury. A rating of 1 indicates no perceptible injury; 5 indicates the plant was dead and ratings of 2, 3 and 4 indicate intermediate degrees of injury based upon the number and extent to which leaves were injured.

[2] = test system: bean, corn, tomato or cotton; test: Phytotoxicity Test, crop plants overall; conditions: text statement
Method: (§3) Each of the new compounds were evaluated in comparison with known similar prior art compounds to determine their comparative pesticidal activity against mites and certain insects, including an aphid, caterpillar, a beetle and a fly. The new compounds were also tested for phytotoxicity on important economic crops including bean, corn, tomato and cotton. The new compounds were further evaluated for mammalian toxicity.
as §1, §2

[3] = test system: corn; test: Phytotoxicity Test, corn; conditions: 2500 parts per million; ten days
Method: as §1
as §2, with “After ten days the plants were visually inspected to determine the extent of foliage injury. A rating of 1 indicates no perceptible injury; 5 indicates the plant was dead and ratings of 2, 3 and 4 indicate intermediate degrees of injury based upon the number and extent to which leaves were injured.” left out

[4] = test system: tomato; test: Phytotoxicity Test, tomato; conditions: 2500 parts per million; ten days
Method: as §1
as §2, with “After ten days the plants were visually inspected to determine the extent of foliage injury. A rating of 1 indicates no perceptible injury; 5 indicates the plant was dead and ratings of 2, 3 and 4 indicate intermediate degrees of injury based upon the number and extent to which leaves were injured.” left out

[5] = test system: insects; test: Insect toxicity, overall; conditions: text statement
Method: as §3, §1
In Table 1 are presented insect and rat toxicity data (bait tests) on a comparative basis of the compounds described above. […] Rat toxicity is also more meaningfully compared on the basis of molar weight LD50 values. The relative efficacy of the parent compounds as compared to the previously known derivatives and as compared to the new compounds of this invention is also shown in Table 1. The ratio of efficacy as contact poisons (immersion/bait) of the compounds tested against Armyworm and House Fly is presented in Table 2 along with the results of the phytotoxicity tests of the compounds on bean, corn, tomato and cotton.

SMILES	Phytotoxicity, Bean [1]	phytotoxicity (in words) [2]	other results
CNC(=O)ON=C(C)SC [Compound 1, O-(methylcarbamoyl) S-methyl acetothiolhydroximate]	BuCl 2	phytotoxic to one or more of the crop plants	
CNC(=O)ON=C(C)SC(C)C [Compound 2]	Bu 2	phytotoxic to one or more of the crop plants	Phytotoxicity, Corn [3]: Bu 2
CCSC(C)=NOC(=O)NC [Compound 3]	2		Phytotoxicity, Tomato [4]: 2
CSC(C)=NOC(=O)N(C)Sc1ccc(Cl)cc1 [Compound 4]	Trif. 3		
CC(=NOC(=O)N(C)Sc1ccc(Cl)cc1)SC(C)C [Compound 5]	Trif. 3		
CSC(C)=NOC(=O)N(C)Sc1ccc(C(C)(C)C)cc1 [Compound 8, O-[N-Methyl-N-[4-(t-butylphenyl)sulfenyl]carbamoyl] S-Methyl Acetothiolhydroximate]		very low phytotoxicity	insect toxicity / pesticidal activity (in words) [5]: dramatic improvement in toxicity against all insects tested with the exception of house fly; insect toxicity / pesticidal activity (in words) ([5]; listed as O-[ N-methyl-N-[4-(t-butylphenyl)sulfenyl] carbamoyl] S-methyl acetothiolhydroxi): exceptionally high insecticidal activity against aphid, armyworm and bean beetle
CC(=NOC(=O)N(C)Sc1ccc(C(C)(C)C)cc1)SC(C)C [Compound 9, O-[N-Methyl-N-[4-(t-Butylphenyl)sulfenyl]carbamoyl] S-Isopropyl Thiolacetohydroximate]		extremely low phytotoxicity	contact / stomach poison properties for insects (in words) [5]: dramatically superior contact poison characteristics; insect toxicity / pesticidal activity (in words) [5]: dramatic improvement in activity against all insect species, again with the exception of house fly; contact / stomach poison properties for insects (in words) ([5]; listed as O-[ N-methyl-N-[4-(t-butylphenyl) sulfenyl] carbamoyl] S-isopropyl thiolacetohyd): outstanding stomach poison against insects and also appears to be the most powerful contact poison for insects among all of the compositions tested
